Source: ChEMBL document CHEMBL5303304, “EUbOPEN Chemogenomics Library - IncuCyte” (2023)

How the values were obtained:
Format in all cases: toxicity, cell-based
HEK-293T = assay: Incucyte cell viability with HEK293T; details: human, 10 µM, compound concentration 10 uM
Fibroblast = assay: Incucyte cell viability with human fibroblast; details: 10 µM, compound concentration 10 uM
U2OS = assay: Incucyte cell viability with U2OS; details: human, 10 µM, compound concentration 10 uM
Note: unitless GR value; below 1 slowed growth and below 0 cell loss.

Compound | Growth Rate (HEK-293T; 0 h, replicate number 1) | Growth Rate (HEK-293T; 12 h, replicate number 2) | Growth Rate (HEK-293T; 18 h, replicate number 2) | Growth Rate (HEK-293T; 24 h, replicate number 2) | Growth Rate (Fibroblast; 0 h, replicate number 1) | Growth Rate (Fibroblast; 6 h, replicate number 2) | Growth Rate (Fibroblast; 12 h, replicate number 1) | Growth Rate (Fibroblast; 12 h, replicate number 2) | Growth Rate (Fibroblast; 18 h, replicate number 1) | Growth Rate (Fibroblast; 18 h, replicate number 2) | Growth Rate (Fibroblast; 24 h, replicate number 1) | Growth Rate (Fibroblast; 24 h, replicate number 2) | Growth Rate (U2OS; 0 h, replicate number 2) | Growth Rate (U2OS; 6 h, replicate number 1) | Growth Rate (U2OS; 12 h, replicate number 1) | Growth Rate (U2OS; 24 h, replicate number 1) | Growth Rate (Fibroblast; 0 h, replicate number 2) | Growth Rate (U2OS; 6 h, replicate number 2) | Growth Rate (U2OS; 18 h, replicate number 2) | Growth Rate (U2OS; 12 h, replicate number 2) | also measured
O=C(O)C(F)(F)F.O=C1NC(=O)/C(=C/c2c[nH]c(=O)c(-c3ccc(N4CCNCC4)nc3)c2)S1 | 0.51 | 0.93 | 0.96 | 0.95 | 0.18 | -0.44 | -0.78 | 0.62 | -0.06 | 0.69 | 0.69 | 0.73 | -0.63 | 0.54 | 0.92 | 0.96 | – | – | – | – | Growth Rate (HEK-293T; 0 h, replicate number 2): 0.87; Growth Rate (U2OS; 18 h, replicate number 1): 0.97
COc1ncc2cc(C(=O)Nc3cc(C(=O)NCc4cccc(Cl)c4)ccc3Cl)c(=O)[nH]c2n1 | – | 0.55 | 0.64 | 0.79 | – | -0.4 | -0.98 | 0.79 | -0.46 | – | 0.44 | 0.92 | – | – | – | – | 0.35 | 0.67 | 0.97 | – | Growth Rate (HEK-293T; 6 h, replicate number 1): 0.22; Growth Rate (HEK-293T; 6 h, replicate number 2): -0.03; Growth Rate (HEK-293T; 12 h, replicate number 1): 0.64; Growth Rate (HEK-293T; 18 h, replicate number 1): 0.51; Growth Rate (HEK-293T; 24 h, replicate number 1): 0.67; Growth Rate (U2OS; 24 h, replicate number 2): 0.97
COc1cc(C(=O)NCCOCCOCCOCC(=O)N[C@H](C(=O)N2C[C@H](O)C[C@H]2C(=O)NCc2ccc(-c3scnc3C)cc2)C(C)(C)C)ccc1Nc1ncc(C(F)(F)F)c(Oc2cccc3c2C(=O)CC3)n1 | – | 0.02 | -0.01 | -0.02 | – | -0.8 | 0.45 | 0.43 | 0.28 | 0.85 | 0.14 | 0.84 | 0.63 | – | – | 0.61 | 0.72 | – | 0.66 | 0.87 | Growth Rate (HEK-293T; 6 h, replicate number 1): 0.29; Growth Rate (HEK-293T; 12 h, replicate number 1): -0.01; Growth Rate (HEK-293T; 18 h, replicate number 1): 0; Growth Rate (HEK-293T; 24 h, replicate number 1): 0.03; Growth Rate (Fibroblast; 6 h, replicate number 1): 0.15; Growth Rate (U2OS; 24 h, replicate number 2): 0.68
Cn1cnc(Cn2ccc3ccc(CNCc4[nH]c5ccccc5c4[C@@H]4NC(=O)c5ccc(O)cc54)cc32)c1 | 0.61 | – | – | – | -0.98 | -0.87 | – | 0.75 | 0.8 | 0.38 | 0.98 | 0.88 | – | 0.54 | 0.8 | 0.95 | 0.6 | 0.95 | 0.85 | 0.81 | Growth Rate (Fibroblast; 6 h, replicate number 1): 0.3; Growth Rate (U2OS; 18 h, replicate number 1): 0.99
CCCCC(C)(O)C/C=C/[C@H]1[C@H](O)CC(=O)[C@@H]1CCCCCCC(=O)O (stereo partly specified) [MISOPROSTOL ACID] | -0.42 | – | – | – | -1 | – | 0.98 | – | 0.86 | – | – | 0.97 | 0.49 | – | – | – | -0.92 | – | – | 0.94 | Growth Rate (HEK-293T; 0 h, replicate number 2): -0.77
CCn1c(CNC(=O)c2ncc(C)nc2N)[n+](CC)c2ccc(C(=O)N(C)CCN(C)C)cc21.Cl.Cl.[Cl-] | 0.03 | – | – | – | -1 | – | 0.87 | – | 0.98 | – | 0.9 | – | 0.31 | 0.58 | 0.62 | 0.97 | -0.3 | 0.99 | – | 0.9 | Growth Rate (HEK-293T; 12 h, replicate number 1): 0.97; Growth Rate (HEK-293T; 24 h, replicate number 1): 1; Growth Rate (Fibroblast; 6 h, replicate number 1): 0
CCOC(=O)C1=C(C)NC(C)=C(C(=O)OC)C1c1cccc([N+](=O)[O-])c1 (stereo unspecified) [NITRENDIPINE] | – | 0.63 | 0.99 | 0.95 | -0.46 | – | – | – | -0.02 | – | – | 0.95 | -0.99 | 0.47 | 0.89 | 0.91 | -0.98 | 0.51 | 0.86 | 0.71 | Growth Rate (HEK-293T; 6 h, replicate number 1): 0.11; Growth Rate (HEK-293T; 6 h, replicate number 2): -0.36; Growth Rate (U2OS; 0 h, replicate number 1): 0.22; Growth Rate (U2OS; 24 h, replicate number 2): 0.9
